System: Human dermal fibroblasts
Assay: Stimulation of collagen synthesis in human dermal fibroblasts, procollagen type I C-peptide (PIP) EIA
Assay type: cell-based
Settings: compound at 0.0005% in DMSO, triplicate, 48-hour incubation; procollagen type I C-peptide in conditioned medium; increase in collagen over DMSO control
Procedure: The compounds 1-5, and 8-9 were assayed for stimulation of collagen synthesis as follows. Human dermal fibroblasts (Cascade Biologics, Portland, Oreg.) were plated at 10,000 cells/well in 96-well culture plates in supplemented medium (DMEM, 10% Fetal Bovine Serum, 1% Penicillin/Streptomycin and 1% L-Glutamine) overnight in humidified atmosphere of 10% CO2 at 37° C. The next day, the medium was replaced with fresh medium (DMEM, 1% Penicillin/Streptomycin and 1% L-Glutamine) and the compounds dissolved DMSO were added to the wells in triplicate at a concentration of 0.0005%, DMSO solution was used a control. Following 48-hour incubation, the plates were removed from the incubator and the medium from each well was collected for the procollagen assay.
Collagen production was measured using procollagen type I C-peptide (PIP) EIA kit (Takara Bio, Inc., Japan). Briefly, the conditioned medium was diluted 1:10 in Sample Diluent, 20 μl of diluted conditioned medium and 100 μl of antibody-POD conjugate solution were added to the wells of the Takara HASA plate. The ELISA plate was incubated at 37° C. for 3 hours before the wells were washed four times with 400 μl of 1×PBS. At the end of wash, 100 μl of substrate solution (supplied with kit) was added to the wells and incubated at room temperature for 15 minutes. The reaction was stopped by adding 100 μl of 1N sulfuric acid to the wells. The absorbance was measured on a spectrophotometer at 450 nm wavelength. The amount of procollagen peptide in the conditioned medium was calculated from the standard curve. The stimulation of collagen production was shown as an increase in collagen over the control.

Compound	% Collagen Stimulation [%]
CCc1c(C(=O)N2CCCC2)cnn1-c1ccccc1Cl [Compound 1]	73.2
Cc1c(C(=O)N2CCCC2)c(CC(C)C)nn1-c1ccccc1 [Compound 2]	23.1
CCCc1c(C(=O)N2CCOCC2)cnn1-c1ccccc1Cl [Compound 3]	13.5
Cc1c(C(=O)N2CCCC2)cnn1-c1ccccc1 [Compound 4]	12.5
CCCc1c(C(=O)N2CCCC2)cnn1-c1ccccc1C [Compound 5]	45.23
Cc1ccccc1N1CCN(C(=O)c2cc(-c3ccccc3)nn2-c2ccc(Cl)c(Cl)c2)CC1 [Compound 8]	83.7
Cc1ccccc1N1CCN(C(=O)c2cc(-c3cccn3C)nn2-c2ccccc2Cl)CC1 [Compound 9]	62.2
